PubChem BioAssay (NCI)
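Test compounds were applied to cells in 96-well plates for 48 hours at 5 doses. Here, GI50 denotes the concentration required for 50% inhibition of growth. TGI marks complete inhibition of growth.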

What was measured:
Experiment in all cases: inhibition of tumour cell growth, NCI panel, 48 h
MOLT-4 leukemia = tested on: MOLT-4 leukemia
DU-145 prostate = tested on: DU-145 prostate
HOP-62 NSCLC = tested on: HOP-62 NSCLC
OVCAR-4 ovarian = tested on: OVCAR-4 ovarian
ACHN renal = tested on: ACHN renal
UO-31 renal = tested on: UO-31 renal
HCT-116 colon = tested on: HCT-116 colon
OVCAR-3 ovarian = tested on: OVCAR-3 ovarian
RXF 393 renal = tested on: RXF 393 renal
SNB-19 CNS = tested on: SNB-19 CNS
SR leukemia = tested on: SR leukemia
SK-MEL-28 melanoma = tested on: SK-MEL-28 melanoma
NCI-H226 lung = tested on: NCI-H226 lung
A498 renal = tested on: A498 renal
LOX IMVI melanoma = tested on: LOX IMVI melanoma
MCF7 breast = tested on: MCF7 breast
MDA-MB-231 breast = tested on: MDA-MB-231 breast
HS 578T breast = tested on: HS 578T breast
SK-MEL-2 melanoma = tested on: SK-MEL-2 melanoma
EKVX NSCLC = tested on: EKVX NSCLC
UACC-257 melanoma = tested on: UACC-257 melanoma
NCI-H522 lung = tested on: NCI-H522 lung
HOP-92 NSCLC = tested on: HOP-92 NSCLC
K-562 leukemia = tested on: K-562 leukemia
TK-10 renal = tested on: TK-10 renal
786-0 renal = tested on: 786-0 renal
SF-539 CNS = tested on: SF-539 CNS
NCI-H460 lung = tested on: NCI-H460 lung
IGROV1 ovarian = tested on: IGROV1 ovarian

O=C1Nc2ccc(Cl)cc2/C1=C/c1ccc(OCc2ccc(Br)cc2F)cc1
GI50 (MOLT-4 leukemia): 4.63 µM | TGI (MOLT-4 leukemia): 19.2 µM | GI50 (DU-145 prostate): 10.2 µM | TGI (DU-145 prostate): 26.6 µM | GI50 (HOP-62 NSCLC): 3.14 µM | TGI (HOP-62 NSCLC): 11.7 µM | GI50 (OVCAR-4 ovarian): 2.06 µM | TGI (OVCAR-4 ovarian): 4.67 µM | GI50 (ACHN renal): 2.19 µM | TGI (ACHN renal): 5.29 µM | GI50 (UO-31 renal): 1.46 µM | TGI (UO-31 renal): 6.65 µM | GI50 (HCT-116 colon): 3.13 µM | TGI (HCT-116 colon): 10.7 µM | GI50 (OVCAR-3 ovarian): 3.28 µM | TGI (OVCAR-3 ovarian): 10.1 µM | GI50 (RXF 393 renal): 4.73 µM | TGI (RXF 393 renal): 18.1 µM | GI50 (SNB-19 CNS): 4.06 µM | TGI (SNB-19 CNS): 15.7 µM | GI50 (SR leukemia): 2.72 µM | TGI (SR leukemia): 9.16 µM | GI50 (SK-MEL-28 melanoma): 5.42 µM | TGI (SK-MEL-28 melanoma): 17.4 µM | GI50 (NCI-H226 lung): 2.66 µM | TGI (NCI-H226 lung): 11.5 µM | GI50 (A498 renal): 2.45 µM | TGI (A498 renal): 5.42 µM | GI50 (LOX IMVI melanoma): 2.88 µM | TGI (LOX IMVI melanoma): 10 µM | GI50 (MCF7 breast): 2.95 µM | TGI (MCF7 breast): 14.2 µM | GI50 (MDA-MB-231 breast): 3.21 µM | TGI (MDA-MB-231 breast): 12.2 µM | GI50 (HS 578T breast): 2.37 µM | TGI (HS 578T breast): 6.69 µM | GI50 (SK-MEL-2 melanoma): 15.5 µM | TGI (SK-MEL-2 melanoma): 30.1 µM | GI50 (EKVX NSCLC): 4.51 µM | TGI (EKVX NSCLC): 22.1 µM | GI50 (UACC-257 melanoma): 13 µM | TGI (UACC-257 melanoma): 27.6 µM | GI50 (NCI-H522 lung): 3.31 µM | TGI (NCI-H522 lung): 11.1 µM | GI50 (HOP-92 NSCLC): 2.12 µM | TGI (HOP-92 NSCLC): 6.91 µM | GI50 (K-562 leukemia): 3.87 µM | TGI (K-562 leukemia): 15.3 µM | GI50 (TK-10 renal): 6.75 µM | TGI (TK-10 renal): 22.9 µM | GI50 (786-0 renal): 3.06 µM | TGI (786-0 renal): 8.32 µM | GI50 (SF-539 CNS): 6.32 µM | TGI (SF-539 CNS): 19.1 µM | GI50 (NCI-H460 lung): 2.1 µM | TGI (NCI-H460 lung): 4.38 µM | GI50 (IGROV1 ovarian): 4.11 µM | TGI (IGROV1 ovarian): 15.5 µM
